Counter-ions that a name gives are not always drawn.
Key:
[1] = Solubility determination in deionized water; format: physicochemical; details: for Solubility S: ultrasonication, stepwise addition of water; for Dissolution result: visual observation
Method: About 2 mg of each of the various crystalline acidic salts and the compound of formula (I) in free form was precisely weighed out into a 2 mL glass vial, and about 100 μL of deionized water was added each time; the mixture was ultrasonicated, and if the compound was not dissolved, the step of adding deionized water and performing ultrasonication was repeated until the compound was completely dissolved or the concentration was <0.2 mg/mL. The total volume of the water added was recorded, the dissolution behavior and result were observed, and the solubility of each compound was calculated.

[2] = Hygroscopic behavior test by dynamic vapor sorption (DVS); format: physicochemical; details: for Hygroscopic weight gain %: 25° C., DVS
Source text: The experimental method of characterizing the crystalline acidic salts of the compound of formula (I) using dynamic vapor sorption (DVS) is as follows: a small amount of crystalline acidic salt powder of the compound of formula (I) was placed in a precision sample pan that came with the instrument; after the sample was loaded, the aluminum pan was sent into the instrument for analysis. In the present patent, the instruments used for dynamic vapor sorption were all the DVS Intrinsic model, the experimental parameter was set to using nitrogen as a carrier gas, the constant temperature was set to 25° C., the rate of mass percentage change over a unit of time (dm/dt)=0.01%/min was used as a criterion for determining if an equilibrium is reached, and the program humidity change cycle was set as follows: the initial relative humidity was 0%, the relative humidity was 90% at the end of the cycle, 2 cycles were set, and each 10% R.H. change was a step.
The inventors of the present invention measured the hygroscopic weight gains of each of the various crystalline forms in various relative humidity conditions (hygroscopic weight gain/pre-hygroscopic weight[…]) according to the dynamic vapor sorption method, and assessed the hygroscopicity of the different crystalline compounds.

Structure (SMILES) | Solubility S [1] | Dissolution result [1] | Hygroscopic weight gain % ([2]; relative humidity 0.0 %) [%] | Hygroscopic weight gain % ([2]; relative humidity 10.0 %) [%] | Hygroscopic weight gain % ([2]; relative humidity 20.0 %) [%] | Hygroscopic weight gain % ([2]; relative humidity 30.0 %) [%] | Hygroscopic weight gain % ([2]; relative humidity 40.0 %) [%] | Hygroscopic weight gain % ([2]; relative humidity 50.0 %) [%] | Hygroscopic weight gain % ([2]; relative humidity 60.0 %) [%] | Hygroscopic weight gain % ([2]; relative humidity 70.0 %) [%] | Hygroscopic weight gain % ([2]; relative humidity 80.0 %) [%] | Hygroscopic weight gain % ([2]; relative humidity 90.0 %) [%] | hygroscopic weight gain [2]
Cc1nc(NC(=O)N2CCC(C)(C)C2=O)ccc1Oc1ccnc(-c2cnn(C)c2)c1 [Methanesulfonate crystalline form II, 3,3-dimethyl-N-(6-methyl-5-((2-(1-methyl-1H-pyrazol-4-yl)pyridin-4-yl)oxy)pyridin-2-yl)-2-oxopyrrolidine-1-carboxamide] | S > 20 mg/mL | Clear solution | 0.00 | 0.11 | 0.18 | 0.20 | 0.24 | 0.31 | 0.88 | 8.93 | 12.44 | 23.15 | 
Cc1nc(NC(=O)N2CCC(C)(C)C2=O)ccc1Oc1ccnc(-c2cnn(C)c2)c1 [Phosphate crystalline form I, 3,3-dimethyl-N-(6-methyl-5-((2-(1-methyl-1H-pyrazol-4-yl)pyridin-4-yl)oxy)pyridin-2-yl)-2-oxopyrrolidine-1-carboxamide] | S > 20 mg/mL | Clear solution | 0.02 | 1.19 | 1.86 | 2.32 | 2.78 | 3.37 | 3.97 | 4.66 | 5.46 | 6.383 | 
Cc1nc(NC(=O)N2CCC(C)(C)C2=O)ccc1Oc1ccnc(-c2cnn(C)c2)c1 [Hydrochloride crystalline form I, 3,3-dimethyl-N-(6-methyl-5-((2-(1-methyl-1H-pyrazol-4-yl)pyridin-4-yl)oxy)pyridin-2-yl)-2-oxopyrrolidine-1-carboxamide] | S > 20 mg/mL | Clear solution | 0.00 | 0.13 | 0.24 | 0.34 | 0.42 | 0.52 | 0.63 | 0.81 | 1.37 | 19.40 | less than 10%
Cc1nc(NC(=O)N2CCC(C)(C)C2=O)ccc1Oc1ccnc(-c2cnn(C)c2)c1 [Tartrate crystalline form I, 3,3-dimethyl-N-(6-methyl-5-((2-(1-methyl-1H-pyrazol-4-yl)pyridin-4-yl)oxy)pyridin-2-yl)-2-oxopyrrolidine-1-carboxamide] | S > 20 mg/mL | Clear solution | 0.00 | 0.83 | 1.79 | 2.42 | 2.88 | 3.32 | 3.77 | 4.44 | 5.17 | 10.61 | 
Cc1nc(NC(=O)N2CCC(C)(C)C2=O)ccc1Oc1ccnc(-c2cnn(C)c2)c1 [Fumarate crystalline form I, 3,3-dimethyl-N-(6-methyl-5-((2-(1-methyl-1H-pyrazol-4-yl)pyridin-4-yl)oxy)pyridin-2-yl)-2-oxopyrrolidine-1-carboxamide] | S > 20 mg/mL | Clear solution |  |  |  |  |  |  |  |  |  |  | 
Cc1nc(NC(=O)N2CCC(C)(C)C2=O)ccc1Oc1ccnc(-c2cnn(C)c2)c1 [Citrate crystalline form I, 3,3-dimethyl-N-(6-methyl-5-((2-(1-methyl-1H-pyrazol-4-yl)pyridin-4-yl)oxy)pyridin-2-yl)-2-oxopyrrolidine-1-carboxamide] | S > 20 mg/mL | Clear solution |  |  |  |  |  |  |  |  |  |  | 
Cc1nc(NC(=O)N2CCC(C)(C)C2=O)ccc1Oc1ccnc(-c2cnn(C)c2)c1 [Malate crystalline form I, 3,3-dimethyl-N-(6-methyl-5-((2-(1-methyl-1H-pyrazol-4-yl)pyridin-4-yl)oxy)pyridin-2-yl)-2-oxopyrrolidine-1-carboxamide] | S > 20 mg/mL | Clear solution |  |  |  |  |  |  |  |  |  |  | 
Cc1nc(NC(=O)N2CCC(C)(C)C2=O)ccc1Oc1ccnc(-c2cnn(C)c2)c1 [Sulfate crystalline form I, 3,3-dimethyl-N-(6-methyl-5-((2-(1-methyl-1H-pyrazol-4-yl)pyridin-4-yl)oxy)pyridin-2-yl)-2-oxopyrrolidine-1-carboxamide] | S > 20 mg/mL | Clear solution |  |  |  |  |  |  |  |  |  |  | 
Cc1nc(NC(=O)N2CCC(C)(C)C2=O)ccc1Oc1ccnc(-c2cnn(C)c2)c1 [Compound in free form, 3,3-dimethyl-N-(6-methyl-5-((2-(1-methyl-1H-pyrazol-4-yl)pyridin-4-yl)oxy)pyridin-2-yl)-2-oxopyrrolidine-1-carboxamide] | S < 1.5 mg/mL | Not clear |  |  |  |  |  |  |  |  |  |  | 

Source: patent publication US20240317710A1, “CRYSTALLINE CSF-1R INHIBITOR ACIDIC SALT, PREPARATION METHOD THEREFOR AND USE THEREOF” (Abbisko Therapeutics Co. Ltd., priority 2021, published 2024)
